Measured values: patent publication US8450308B2 (Vitae Pharmaceuticals, Inc., priority 2008, dated 2013)

Experiment: BACE cell assay: soluble Amyloid Beta 1-40 (Aβ 1-40) in culture media of H4-APPsw cells
Format: cell-based
Conditions: in vitro cell activity, H4-APPsw cells, secreted Aβ 1-40, overnight treatment; read-out: IC50
Protocol: H4 neuroglioma cell line that stably expresses Amyloid Precursor Protein (APP) containing the KM-NL Swedish mutation (H4-APPsw) was generated. For the assay, cells are treated overnight in the presence of inhibitor and the culture media are subjected to ELISA analysis of soluble Amyloid Beta 1-40 (Aβ 1-40).
H4 neuroglioma cell line was cultured in DMEM with 10% FBS and 1% penicillin/streptomycin (Culture Medium) at 37° C., 5% CO2. […] 24 hrs after transfection, the cells were replaced into three new plates (150 mm) in fresh Culture Medium with 250 ug/ml Zeocin. […] The levels of APPsw expression were analyzed by immunoblotting and the production of Aβ 1-40 was detected by ELISA of culture supernatants. The selected clones are maintained in Culture Medium with 250 μg/ml Zeocin and routinely split in 3-4 days to maintain 20-80% confluence.
Split cells. Split H4-APPsw cells in Culture Medium and culture overnight such that cells will be ˜80% confluent next morning.
Create Compound Dilution Plate. After determining the desired final concentration of compound to be tested, create a 500× dilution plate. Add DMSO, but not inhibitor, to each well of Column 1. […] Add compounds of interest at 500× desired final concentration to wells A3-A10. Add DMSO, but not inhibitor, to each well of Columns 11 and 12. Dilute contents of Row A 1:3 in Row B. then continue through Rows C—H.
Create Media Plate. To create a 2× solution of compound in media, add 996 μL Culture Medium to each well of a 96-well 2 ml deep well plate (Media Plate) in biosafety hood. Add 4 μL 5 mM control compound to Media Plate wells A1-D1 for determination of full inhibition.
Add media to Cell Plate. With a multichannel pipettor, mix each well of Media Plate several times to insure homogeneity. Add 100 μL of mixture to Black polymer bottom P-D-L plates. Next, place Medium Plate and Cell Plate in the incubator.
Add cells to Cell Plate. Trypsinize and count H4-APPsw cells. Dilute cells 6×10^5 cells/ml in Culture Medium and remove Cell Plate from incubator. Vortex cells to homogeneity, then using a multichannel repeating pipettor, add 100 μL cell suspension to Cell Plate, adding cells from Row H to Row A. Place Cell Plate in incubator.
Change media in Cell Plate. After 5 h, check Cell Plate by microscope to insure cells are attached. In culture hood, remove media from Cell Plate using multichannel repeating pipettor. Add 100 μl Culture Medium to each well. Remove Media Plate from incubator and mix with pipettor as previous. Add 100 μl from each well of Media Plate to corresponding well in Cell Plate. Place Cell Plate in incubator overnight.
Perform ELISA to determine levels of secreted Aβ 1-40. After 16 h incubation, spin Cell Plate for 8 min at 1200 rpm. The primary reading of Aβ 1-40 levels is done using PerkinElmer AlphaLISA technology. Follow the manufacturer's protocol for performing AlphaLISA in a white ½ area Optiwell plate using Row 12 for peptide standard (1:2 dilutions, starting at 15 ng/ml). Data are acquired using PerkinElmer Fusion-Alpha FP-HT, Alpha protocol (Count Time 0.6 s, Count Time Ratio 30%:70%).
Export data from Fusion using Columnar Report format into a separate file for each plate. Upload data into Activity Base using RIA-DOSE-RESPONSE protocol (Version 1). Data from at least eight doses were fitted to a four parameter logistical model using XLfit software to determine potency.

IC50 [nM] | SMILES
1000 to 5000 | CN1OC2(CC(C3CCCc4ccccc43)Oc3ccc(-c4cccc(Cl)c4)cc32)N=C1N (stereo not shown) [Compound 239]
100 to 500 | CN1O[C@]2(C[C@]3(CCCc4ccccc4C3)Oc3ccc(-c4cccc(C#N)c4)cc32)N=C1N [Compound 220]
1 to 100 | CN1C(=O)C2(CC(C3CCOC(C)(C)C3)Oc3ccc(-c4cc(C#N)cc(C#N)c4)cc32)N=C1N (stereo not shown) [Compound 185]
1 to 100 | CN1C(=O)[C@@]2(C[C@@H](C3CCOC(C)(C)C3)Oc3ccc(-c4ccc(F)c(Cl)c4)cc32)N=C1N (stereo partly shown) [Compound 187]
1000 to 5000 | CN1O[C@@]2(C[C@H](C3CCCc4ccccc43)Oc3ccc(-c4ccc(F)c(Cl)c4)cc32)N=C1N (stereo partly shown) [Compound 252]
100 to 500 | Cc1cccc(-c2ccc3c(c2)C2(CC(C4CCOC(C)(C)C4)O3)N=C(N)N(C)C2=O)c1F (stereo not shown) [Compound 244]
1000 to 5000 | CN1OC2(CC3(CCCc4ccccc4C3)Oc3ccc(-c4cc(F)cc(C(F)(F)F)c4)cc32)N=C1N (stereo not shown) [Compound 242]
500 to 1000 | CN1OC2(CC3(CCCc4ccccc4C3)Oc3ccc(-c4cc(F)cc(C#N)c4)cc32)N=C1N (stereo not shown) [Compound 186]
1 to 100 | CN1C(=O)[C@@]2(C[C@]3(CCCOC3)Oc3ccc(-c4cc(Cl)cc(Cl)c4)cc32)N=C1N [Compound 202]
1 to 100 | CN1C(=O)C2(C[C@H](C3CCOC(C)(C)C3)Oc3ccc(-c4cc(F)cc(Cl)c4)cc32)N=C1N (stereo partly shown) [Compound 190]
1000 to 5000 | CC1CC[C@@]2(CO1)C[C@]1(N=C(N)N(C)O1)c1cc(-c3ccc(F)c(Cl)c3)ccc1O2 (stereo partly shown) [Compound 249]
100 to 500 | CN1C(=O)C2(CC(C3CCCOC3)Oc3ccc(-c4cc(F)cc(F)c4)cc32)N=C1N (stereo not shown) [Compound 267]
500 to 1000 | CN1O[C@@]2(C[C@H]([C@@H]3CCOC(C)(C)C3)Oc3ccc(-c4cccc(C#N)c4)cc32)N=C1N [Compound 237]
100 to 500 | CN1O[C@]2(C[C@H]([C@@H]3CCOC(C)(C)C3)Oc3ccc(-c4cccc(C#N)c4)cc32)N=C1N [Compound 211]
1000 to 5000 | CN1O[C@@]2(C[C@@H](C3CCCc4ccccc43)Oc3ccc(-c4ccc(F)c(C#N)c4)cc32)N=C1N (stereo partly shown) [Compound 201]
100 to 500 | CN1C(=O)C2(C[C@H](C3CCOC(C)(C)C3)Oc3ccc(-c4cc(F)cc(F)c4)cc32)N=C1N (stereo partly shown) [Compound 231]
500 to 1000 | Cc1cc(C)cc(-c2ccc3c(c2)[C@]2(C[C@]4(CCCOC4)O3)N=C(N)N(C)C2=O)c1 [Compound 276]
100 to 500 | CN1OC2(CC(C3CCOC(C)(C)C3)Oc3ccc(-c4cc(C#N)cc(C#N)c4)cc32)N=C1N (stereo not shown) [Compound 248]
1000 to 5000 | CN1OC2(CC(C3CCOC(C)(C)C3)Oc3ccc(-c4cccc(Cl)c4)cc32)N=C1N (stereo not shown) [Compound 264]
1000 to 5000 | COc1cc(Cl)cc(-c2ccc3c(c2)C2(CC4(CCC(C)OC4)O3)N=C(N)N(C)O2)c1 (stereo not shown) [Compound 274]
1 to 100 | CN1C(=O)C2(CC(C3CCOC(C)(C)C3)Oc3ccc(-c4cc(F)cc(C#N)c4)cc32)N=C1N (stereo not shown) [Compound 194]
1 to 100 | CN1C(=O)C2(CC3(CCCc4ccccc4C3)Oc3ccc(-c4cccc(C#N)c4)cc32)N=C1N (stereo not shown) [Compound 179]
500 to 1000 | Cc1cc(Br)cc(-c2ccc3c(c2)C2(CC4(CCCOC4)O3)N=C(N)N(C)C2=O)c1F (stereo not shown) [Compound 253]
1000 to 5000 | CN1OC2(CC(C3CCOC(C)(C)C3)Oc3ccc(-c4cc(F)cc(C#N)c4)cc32)N=C1N (stereo not shown) [Compound 260]
1 to 100 | CN1C(=O)C2(CC(C3CCOC(C)(C)C3)Oc3ccc(-c4cccc(C#N)c4F)cc32)N=C1N (stereo not shown) [Compound 212]
100 to 500 | COc1cc(Cl)cc(-c2ccc3c(c2)[C@]2(C[C@@]4(CCCOC4)O3)N=C(N)N(C)C2=O)c1 [Compound 256]
1000 to 5000 | COc1cc(Cl)cc(-c2ccc3c(c2)C2(CC4(CCCc5ccccc5C4)O3)N=C(N)N(C)O2)c1 (stereo not shown) [Compound 234]
1 to 100 | CN1C(=O)C2(CC(C3CCOC(C)(C)C3)Oc3ccc(-c4cc(Cl)cc(C#N)c4)cc32)N=C1N (stereo not shown) [Compound 183]
